Experiment [1] relates to TGF-beta-induced phosphorylation of Smad2 and Smad3 in Mv1-Lu cells. As to the kind of experiment: Inhibition of Smad2/3 phosphorylation in Mv1Lu cells (Example 35A). Format: cell-based, mink Mustela vison. To be noted: Neogale vison, read-out: TβR activity (Example 35A). In a few lines:
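Serum-starved (16-20 h) Mv1-Lu mink lung epithelial cells were pre-incubated 1.5 h with compound dilutions (0.2% DMSO), then stimulated 1 h with 5 ng/ml TGF-beta 1. Phospho-Smad2 (Ser465/467)/Smad3 (Ser423/425) in lysates was measured by ELISA. IC50 came from dose-response fits between stimulated and unstimulated controls.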

In experiment [2] the target is T1, GST-ALK5 (Homo sapiens, UniProt P36897).
T1 sequence (P36897 34-503): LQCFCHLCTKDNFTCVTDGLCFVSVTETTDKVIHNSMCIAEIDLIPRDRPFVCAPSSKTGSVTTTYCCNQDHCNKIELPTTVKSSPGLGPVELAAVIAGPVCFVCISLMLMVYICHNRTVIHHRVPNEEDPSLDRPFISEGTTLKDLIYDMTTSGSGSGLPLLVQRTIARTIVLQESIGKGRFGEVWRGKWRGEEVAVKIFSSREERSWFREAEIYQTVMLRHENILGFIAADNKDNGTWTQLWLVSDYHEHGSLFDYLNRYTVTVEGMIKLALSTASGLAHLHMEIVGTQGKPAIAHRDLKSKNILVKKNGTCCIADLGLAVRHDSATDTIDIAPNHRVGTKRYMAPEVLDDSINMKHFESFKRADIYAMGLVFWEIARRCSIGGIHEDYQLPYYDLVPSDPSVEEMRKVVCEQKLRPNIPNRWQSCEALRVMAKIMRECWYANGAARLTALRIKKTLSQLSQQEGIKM
As to the kind of experiment: In-vitro (enzyme) kinase assay, 384-well flashplate (Example 36). The format is biochemical. Conditions: GST-ALK5, GST-SMAD2 substrate, 3 mM ATP, 30° C., 45 min; read-out: TβR activity (Example 36). Put shortly:
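Radiometric flashplate assay: 31.2 nM GST-ALK5 phosphorylating 439 nM GST-SMAD2 with 3 mM ATP plus ³³P-ATP, in HEPES/MgCl2/MnCl2/DTT/BSA buffer pH 7.4, 45 min at 30 °C, 5-10 compound concentrations. EDTA stop, filtration and washing, then radioactivity counted; IC50 derived from the curve.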

[3] abbreviates: Mv1-Lu cells, TGF-beta 1 5 ng/ml, phospho-Smad2/3 ELISA.

pIC50: −log10 of the molar value. Structures can show the parent of a compound that is named as a salt. Where two headings read alike, the source gives them in different places. A value given as a limit tells only on which side of the number the result lay.

For the molecule `O=S(=O)(c1cccc(-c2cncc(-c3cc(-c4cc(Cl)ccc4F)nc4ncccc34)c2)c1)N1CCNCC1` [compound 145, 2-(5-Chloro-2-fluoro-phenyl)-4-{5-[3-(piperazine-1-sulfonyl)-phenyl]-pyridin-3-yl}-[1,8]naphthyridine], the results for the pIC50 in experiment [1] (setting [3]) and in experiment [2] were 5.00 to 6.00 and 6.00 to 7.00, respectively.

For `Fc1ccc(Cl)cc1-c1cc(-c2cncc(-c3ccccn3)c2)c2cccnc2n1` [compound 103, 4-[2,3′]Bipyridinyl-5′-yl-2-(5-chloro-2-fluoro-phenyl)-[1,8]naphthyridine], the pIC50 in experiment [1] (setting [3]) was 6.00 to 7.00; in experiment [2] it was above 7.00.

Consider `Fc1ccccc1-c1cc(-c2cncc(-c3cnn(CCN4CCCC4)c3)c2)c2cccnc2n1` [compound 24, 2-(2-Fluoro-phenyl)-4-{5-[1-(2-pyrrolidin-1-yl-ethyl)-1H-pyrazol-4-yl]-pyridin-3-yl}-[1,8]naphthyridine], for which the pIC50 in experiment [1] (setting [3]) and in experiment [2] was above 7.00 in each case.

With `OCCn1cc(-c2cncc(-c3cc(-c4cc(C(F)(F)F)ccc4F)nc4ncccc34)c2)cn1` [compound 37, 2-(4-{5-[2-(2-Fluoro-5-trifluoromethyl-phenyl)-[1,8]naphthyridin-4-yl]-pyridin-3-yl}-pyrazol-1-yl)-ethanol], the pIC50 is 6.00 to 7.00 in experiment [1] (setting [3]) and above 7.00 in experiment [2].

Consider `Fc1ccc(Cl)cc1-c1cc(-c2cncc(-c3ccc4c(c3)CNC4)c2)c2cccnc2n1` [compound 175, 2-(5-Chloro-2-fluoro-phenyl)-4-[5-(2,3-dihydro-1H-isoindol-5-yl)-pyridin-3-yl]-[1,8]naphthyridine], for which the pIC50 in experiment [1] (setting [3]) and in experiment [2] was above 7.00 each time.

As for `CN1CCN(c2ccc(-c3cnnc(-c4cc(-c5cc(Cl)ccc5F)nc5ncccc45)c3)cc2)CC1` [compound 130, 2-(5-Chloro-2-fluoro-phenyl)-4-{5-[4-(4-methyl-piperazin-1-yl)-phenyl]-pyridazin-3-yl}-[1,8]naphthyridine], the pIC50 in experiment [1] (setting [3]) and in experiment [2] was 5.00 to 6.00 each time.

As for `Fc1ccc(F)c(-c2cc(-c3cncc(-c4cccc(OC5CCNCC5)c4)c3)c3cccnc3n2)c1` [compound 144, 2-(2,5-Difluoro-phenyl)-4-{5-[3-(piperidin-4-yloxy)-phenyl]-pyridin-3-yl}-[1,8]naphthyridine], the pIC50 is 6.00 to 7.00 in experiment [1] (setting [3]) and above 7.00 in experiment [2].

As for `CC1(C)CCNc2ccc(-c3cncc(-c4cc(-c5cc(Cl)ccc5F)nc5ncccc45)c3)cc21` [compound 146, 2-(5-Chloro-2-fluoro-phenyl)-4-[5-(4,4-dimethyl-1,2,3,4-tetrahydro-quinolin-6-yl)-pyridin-3-yl]-[1,8]naphthyridine], the pIC50 in experiment [1] (setting [3]) and in experiment [2] was 6.00 to 7.00 in each case.

For `N#Cc1cccc(-c2cncc(-c3cc(-c4cc(Cl)ccc4F)nc4ncccc34)c2)n1` [compound 160, 5′-[2-(5-Chloro-2-fluoro-phenyl)-[1,8]naphthyridin-4-yl]-[2,3′]bipyridinyl-6-carbonitrile], the pIC50 in experiment [1] (setting [3]) and in experiment [2] was below 5.00 each time.

Regarding `Fc1ccc(Cl)cc1-c1cc(-c2cncc(-c3ccncc3)c2)c2cccnc2n1` [compound 102, 4-[3,4′]Bipyridinyl-5-yl-2-(5-chloro-2-fluoro-phenyl)-[1,8]naphthyridine], the values for the pIC50 in experiment [1] (setting [3]) and in experiment [2] were 6.00 to 7.00 and above 7.00, respectively.

As for `Fc1ccccc1-c1cc(-c2cncc(-c3ccc(N4CCNCC4)nc3)n2)c2cccnc2n1` [compound 81, 2-(2-Fluoro-phenyl)-4-[6-(6-piperazin-1-yl-pyridin-3-yl)-pyrazin-2-yl]-[1,8]naphthyridine], the results for the pIC50 in experiment [1] (setting [3]) and in experiment [2] were 6.00 to 7.00 and above 7.00, respectively.

On to `CC(=O)Nc1ncc(-c2cc(-c3ccccc3F)nc3ncccc23)c2ccncc12` [compound 74, N-{4-[2-(2-fluoro-phenyl)-[1,8]naphthyridin-4-yl]-[2,7]naphthyridin-1-yl}-acetamide], for which the pIC50 in experiment [1] (setting [3]) was 5.00 to 6.00; in experiment [2], 6.00 to 7.00.

`CN1CCc2ccc(-c3cncc(-c4cc(-c5cc(Cl)ccc5F)nc5ncccc45)c3)cc2C1` [compound 163, 2-(5-Chloro-2-fluoro-phenyl)-4-[5-(2-methyl-1,2,3,4-tetrahydro-isoquinolin-7-yl)-pyridin-3-yl]-[1,8]naphthyridine]: the pIC50 in experiment [1] (setting [3]) and in experiment [2] was above 7.00 throughout.

On to `Fc1ccccc1-c1cc(-c2cncc(-c3cnc4[nH]ncc4c3)c2)c2cccnc2n1` [compound 80, 2-(2-Fluoro-phenyl)-4-[5-(1H-pyrazolo[3,4-b]pyridin-5-yl)-pyridin-3-yl]-[1,8]naphthyridine], for which the pIC50 in experiment [1] (setting [3]) and in experiment [2] was 6.00 to 7.00 throughout.

As to `Cc1cccc(-c2cc(-c3cncc4ccccc34)c3cccnc3n2)n1` [compound 3, 4-Isoquinolin-4-yl-2-(6-methyl-pyridin-2-yl)-[1,8]naphthyridine], the figures for the pIC50 in experiment [1] (setting [3]) and in experiment [2] were below 5.00 and 5.00 to 6.00, respectively.

Take `Fc1ccc(C(F)(F)F)cc1-c1cc(-c2cncc(-c3cnn(C4CCNCC4)c3)c2)c2cccnc2n1` [compound 18, 2-(2-Fluoro-5-trifluoromethyl-phenyl)-4-[5-(1-piperidin-4-yl-1H-pyrazol-4-yl)-pyridin-3-yl]-[1,8]naphthyridine dihydrochloride]: the pIC50 in experiment [1] and in experiment [2] was above 7.00 in each case.

Turning to `CN(C)CCNC(=O)c1ccc(-c2cncc(-c3cc(-c4cc(Cl)ccc4F)nc4ncccc34)c2)cn1` [compound 178, 5′-[2-(5-Chloro-2-fluoro-phenyl)-[1,8]naphthyridin-4-yl]-[3,3′]bipyridinyl-6-carboxylic acid (2-dimethylamino-ethyl)-amide], the pIC50 in experiment [1] (setting [3]) and in experiment [2] was 6.00 to 7.00 each time.

On to `Fc1ccc(Cl)cc1-c1cc(-c2cnc3ccccc3c2)c2cccnc2n1` [compound 100, 2-(5-Chloro-2-fluoro-phenyl)-4-quinolin-3-yl-[1,8]naphthyridine], for which the pIC50 in experiment [1] (setting [3]) is below 5.00; in experiment [2] it was 5.00 to 6.00.

`Fc1ccc(Cl)cc1-c1cc(-c2cncc(-c3ccc4c(c3)OCCO4)c2)c2cccnc2n1` [compound 134, 2-(5-Chloro-2-fluoro-phenyl)-4-[5-(2,3-dihydro-benzo[1,4]dioxin-6-yl)-pyridin-3-yl]-[1,8]naphthyridine]: the figures for the pIC50 in experiment [1] (setting [3]) and in experiment [2] were above 7.00 and 6.00 to 7.00, respectively.

As to `OCCn1cc(-c2cncc(-c3cc(-c4cc(Cl)ccc4F)nc4ncccc34)c2)cn1` [compound 91, 2-(4-{5-[2-(5-Chloro-2-fluoro-phenyl)-[1,8]naphthyridin-4-yl]-pyridin-3-yl}-pyrazol-1-yl)-ethanol], the pIC50 in experiment [1] (setting [3]) and in experiment [2] was above 7.00 in each case.

With `CN1CCN(c2ccc(-c3cc(-c4cc(-c5cc(Cl)ccc5F)nc5ncccc45)cnn3)cc2)CC1` [compound 117, 2-(5-Chloro-2-fluoro-phenyl)-4-{6-[4-(4-methyl-piperazin-1-yl)-phenyl]-pyridazin-4-yl}-[1,8]naphthyridine], the pIC50 in experiment [1] (setting [3]) and in experiment [2] was 6.00 to 7.00 each time.

Consider `CN1CC[C@@H](n2cc(-c3cncc(-c4cc(-c5cc(Cl)ccc5F)nc5ncccc45)c3)cn2)C1` [compound 65, 2-(5-Chloro-2-fluoro-phenyl)-4-{5-[1-((R)-1-methyl-pyrrolidin-3-yl)-1H-pyrazol-4-yl]-pyridin-3-yl}-[1,8]naphthyridine], for which the pIC50 in experiment [1] (setting [3]) and in experiment [2] was above 7.00 in each case.

For the molecule `CCN1CCC(c2ccc(-c3cncc(-c4cc(-c5cc(F)ccc5F)nc5ncccc45)c3)cc2)CC1` [compound 123, 2-(2,5-Difluoro-phenyl)-4-{5-[4-(1-ethyl-piperidin-4-yl)-phenyl]-pyridin-3-yl}-[1,8]naphthyridine], the pIC50 in experiment [1] (setting [3]) and in experiment [2] was above 7.00 throughout.

For the molecule `CN1CCN(c2cncc(-c3cncc(-c4cc(-c5cc(Cl)ccc5F)nc5ncccc45)c3)c2)CC1` [compound 171, 2-(5-Chloro-2-fluoro-phenyl)-4-[5′-(4-methyl-piperazin-1-yl)-[3,3′]bipyridinyl-5 yl]-[1,8]naphthyridine], the pIC50 in experiment [1] (setting [3]) and in experiment [2] was above 7.00 in each case.

On to `Fc1ccc(Cl)cc1-c1cc(-c2cncc(-c3ccc(Cl)nn3)c2)c2cccnc2n1` [compound 107, 2-(5-Chloro-2-fluoro-phenyl)-4-[5-(6-chloro-pyridazin-3-yl)-pyridin-3-yl]-[1,8]naphthyridine], for which the pIC50 in experiment [1] (setting [3]) was 5.00 to 6.00; in experiment [2], 6.00 to 7.00.

For `CN1CCN(c2ccc(-c3cncc(-c4cc(-c5ccccc5F)nc5ncccc45)n3)cn2)CC1` [compound 82, 2-(2-Fluoro-phenyl)-4-{6-[6-(4-methyl-piperazin-1-yl)-pyridin-3-yl]-pyrazin-2-yl}-[1,8]naphthyridine], the values for the pIC50 in experiment [1] (setting [3]) and in experiment [2] were 6.00 to 7.00 and above 7.00, respectively.
